Structures can show the parent of a compound that is named as a salt.
Biological target: T1, Cloned Human Serotonin Receptor, Subtype 7 (h5HT7) (Homo sapiens, UniProt P34969)
T1 construct: purchased PerkinElmer 6120512; host or cells: CHO cells (membranes coated on Basic FlashPlate, Cat. SMP200)
Assay: Radioligand binding assay, [125I]LSD, cloned human 5-HT7 receptor expressed in CHO cells
Settings: radioligand [125I]LSD 0.82 nM
Protocol: Radioligand binding assays were performed using the Cloned Human Serotonin Receptor, Subtype 7 (h5HT7), expressed in CHO cells, coated on Flashplate (Basic FlashPlate Cat.: SMP200) from PerkinElmer (Cat.: 6120512). The protocol assay was essentially the recommended protocol in the Technical Data Sheet by PerkinEmer Life and Analytical Sciences. The Mass membrane protein/well was typically 12 μg and the Receptor/well was about 9-10 fmoles. The Flashplate were let equilibrate at room temperature for one hour before the addition of the components of the assay mixture. The binding buffer was: 50 mM Tris-HCl, pH 7.4, containing 10 mM MgCl2, 0.5 mM EDTA and 0.5% BSA. The radioligand was [^125I]LSD at a final concentration of 0.82 nM. Nonspecific binding was determined with 50 μM of Clozapine. The assay volume was 25 μl. TopSeal-A were applied onto Flashplate microplates and they were incubated at room temperature for 240 minutes in darkness. The radioactivity were quantified by liquid scintillation spectrophotometry (Wallac 1450 Microbeta Trilux) with a count delay of 4 minutes prior to counting and a counting time of 30 seconds per well. Competition binding data were analyzed by using the LIGAND program (Munson and Rodbard, LIGAND: A versatile, computerized approach for characterization of ligand-binding systems. Anal. Biochem. 107: 220-239, 1980) and assays were performed in triplicate determinations for each point.

T1 sequence (P34969 whole entry): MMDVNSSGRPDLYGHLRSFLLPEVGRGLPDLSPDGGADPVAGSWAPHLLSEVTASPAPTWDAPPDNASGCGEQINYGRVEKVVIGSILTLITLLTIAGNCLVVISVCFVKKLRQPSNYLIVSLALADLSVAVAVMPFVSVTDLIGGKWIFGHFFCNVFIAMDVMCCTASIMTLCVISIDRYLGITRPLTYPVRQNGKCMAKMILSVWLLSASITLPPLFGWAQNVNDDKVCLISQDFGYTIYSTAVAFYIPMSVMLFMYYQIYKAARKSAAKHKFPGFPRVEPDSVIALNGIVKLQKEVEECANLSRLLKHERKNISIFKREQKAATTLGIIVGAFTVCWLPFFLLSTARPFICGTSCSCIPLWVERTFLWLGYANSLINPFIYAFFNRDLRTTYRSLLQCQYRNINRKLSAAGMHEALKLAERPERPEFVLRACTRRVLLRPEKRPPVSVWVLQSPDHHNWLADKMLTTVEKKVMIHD

SMILES	Ki	IC50
COc1cccc(Cl)c1-c1cccc2c1CCC(N(C)C)C2 (centres unmarked) [AH, [5-(2-Chloro-6-methoxy-phenyl)-1,2,3,4-tetrahydro-naphthalen-2-yl]-dimethyl-amine]	11.6 ± 3 nM	–
Cc1n[nH]c(C)c1-c1cccc2c1CC[C@H](N(C)C)C2 [Example L, (2S)-[5-(3,5-Dimethyl-1H-pyrazol-4-yl)-1,2,3,4-tetrahydro-naphthalen-2-yl]-dimethyl-amine dihydrochloride]	–	18.4 ± 2.5 nM
COc1ccccc1-c1cccc2c1CCC(N(C)C)C2 (centres unmarked) [AF, [5-(2-Methoxy-phenyl)-1,2,3,4-tetrahydro-naphthalen-2-yl]-dimethyl-amine]	25.8 ± 4.6 nM	–
CCCN(C(C)C)[C@H]1CCc2c(cccc2-c2c(C)nn(C)c2C)C1 [AC, (2S)-Isopropyl-propyl-[5-(1,3,5-trimethyl-1H-pyrazol-4-yl)-1,2,3,4-tetrahydro-naphthalen-2-yl]-amine]	227 ± 11.3 nM	–
CCCN(C)C1CCc2c(cccc2-c2c(C)nn(C)c2C)C1 (centres unmarked) [R, Methyl-propyl-[5-(1,3,5-trimethyl-1H-pyrazol-4-yl)-1,2,3,4-tetrahydro-naphthalen-2-yl]-amine]	9.1 ± 1.5 nM	–
Cc1nn(C)c(C)c1-c1cccc2c1CCC(N1CCCC1)C2 (centres unmarked) [O, 1,3,5-Trimethyl-4-(6-pyrrolidin-1-yl-5,6,7,8-tetrahydro-naphthalen-1-yl)-1H-pyrazole]	96.3 ± 2 nM	–
CCN(C)C1CCc2c(cccc2-c2c(C)nn(C)c2C)C1 (centres unmarked) [T, Ethyl-methyl-[5-(1,3,5-trimethyl-1H-pyrazol-4-yl)-1,2,3,4-tetrahydro-naphthalen-2-yl]-amine]	10.3 ± 0.4 nM	–
Cc1nn(C)c(C)c1-c1cccc2c1CC[C@@H](N(C)C)C2 [Example J, (2R)-Dimethyl-[5-(1,3,5-trimethyl-1H-pyrazol-4-yl)-1,2,3,4-tetrahydro-naphthalen-2-yl]-amine dihydrochloride]	–	178 nM
Cc1nn(C)c(C)c1-c1cccc2c1CC[C@H](N(C)C(C)C)C2 [Example AB, (2S)-Isopropyl-methyl-[5-(1,3,5-trimethyl-1H-pyrazol-4-yl)-1,2,3,4-tetrahydro-naphthalen-2-yl]-amine]	644 ± 63.5 nM	–
COc1ncccc1-c1cccc2c1CCC(N(C)C)C2 (centres unmarked) [AI, [5-(2-Methoxy-pyridin-3-yl)-1,2,3,4-tetrahydro-naphthalen-2-yl]-dimethyl-amine]	61.6 ± 5.8 nM	–
CCN(CC)C1CCc2c(cccc2-c2c(C)nn(C)c2C)C1 (centres unmarked) [Example S, Diethyl-[5-(1,3,5-trimethyl-1H-pyrazol-4-yl)-1,2,3,4-tetrahydro-naphthalen-2-yl]-amine]	130 nM	–
